Results on two compounds are retold here after paper PMC12860872, “Preclinical evaluation of DOTAGA.Glu.(FAPI)2 and DO3A.Glu.(FAPI)2 as theranostics with human dosimetry extrapolation to lutetium-177 and terbium-161 analogs” (European Journal of Nuclear Medicine and Molecular Imaging, 2025).

What is called Kd is the free concentration of one partner at which half of the binding sites on the other are occupied at equilibrium, for simple one-to-one binding.

Where “and” joins values, the source holds several entries; their conditions need not be identical. Identical values can stand only once.

The target of one series is T1, FAP (Homo sapiens, UniProt Q12884).
T1 construct: the CAF cells overexpressing FAP were seeded at a density of 0.8-1 million cells per well; host or cells: hTERT PF179T prostate cancer-associated fibroblasts
T1 sequence (Q12884 1-760): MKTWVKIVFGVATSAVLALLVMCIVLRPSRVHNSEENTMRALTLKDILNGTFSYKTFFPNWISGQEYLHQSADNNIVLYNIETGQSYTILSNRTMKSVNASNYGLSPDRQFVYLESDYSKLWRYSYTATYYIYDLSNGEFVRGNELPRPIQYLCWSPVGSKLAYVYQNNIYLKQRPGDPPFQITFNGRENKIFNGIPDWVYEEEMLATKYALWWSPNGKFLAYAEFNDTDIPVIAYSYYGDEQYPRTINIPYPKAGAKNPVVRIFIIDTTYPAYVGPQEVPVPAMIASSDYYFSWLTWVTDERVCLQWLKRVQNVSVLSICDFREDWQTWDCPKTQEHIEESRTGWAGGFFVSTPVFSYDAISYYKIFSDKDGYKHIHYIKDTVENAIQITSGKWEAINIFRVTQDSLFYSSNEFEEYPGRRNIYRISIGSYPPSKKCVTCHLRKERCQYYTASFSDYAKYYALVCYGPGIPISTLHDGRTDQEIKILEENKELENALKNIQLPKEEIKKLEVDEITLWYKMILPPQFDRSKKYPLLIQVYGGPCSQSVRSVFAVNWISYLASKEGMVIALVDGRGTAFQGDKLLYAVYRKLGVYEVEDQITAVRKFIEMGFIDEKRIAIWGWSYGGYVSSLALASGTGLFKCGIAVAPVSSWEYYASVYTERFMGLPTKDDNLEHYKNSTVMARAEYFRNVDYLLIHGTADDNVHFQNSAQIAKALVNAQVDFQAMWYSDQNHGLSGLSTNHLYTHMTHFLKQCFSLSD
The series can be described thus: Saturation binding on FAP+ CAFs. The conditions noted are these: for Kd: 0.1 to 10 nM radioligand. Here is the method: For receptor saturation studies, FAP^+ CAFs were incubated with 0.1 to 10 nM of the radioligands. For internalization studies, approximately 2.5 pmol of the radioligands were added to CAFs followed by incubation for 15, 30, 60, 90, 120, 180 and 240 min for the ^68Ga-labeled or 30, 60, 120, 240 and 360 min for the ^177Lu-labeled radioligands at 37 °C, 5% CO2. For the externalization studies, approximately 2.5 pmol of the ^177Lu-labeled radioligands were added to CAFs followed by incubation for 2 h at 37 °C, 5% CO2. The amount of externalized activity was measured at 0, 10, 20, 30, 60, 120, 240, and 1440 min (Supplemental Data).
For receptor saturation analysis, the CAF cells overexpressing FAP were seeded at a density of 0.8-1 million cells per well in 6-well plates, pre-coated with BME (Cultrex Reduced Growth Factor Basement Membrane Extract, RGF BME, R&D System, Minneapolis, USA) to enhance cell attachment. The cells were incubated overnight with medium (EMEM supplemented and containing 10% FBS, 100 U/mL penicillin and 100 μg/mL streptomycin). The next day, the medium was removed and the cells were incubated for 30 minutes at 37 °C, with 0.8 mL of fresh medium. Afterwards, the plates were placed on ice for 30 minutes followed by incubation with increasing concentrations of ^68/natGa- and ^177/natLu-labelled DOTAGA.Glu.(FAPI)2 and DO3A.Glu.( FAPI)2 (0.1-10 nM final concentration in the wells). After the addition of the radioligands, the cells were incubated for 120 minutes at 4 °C. Non-specific binding was determined in the presence of UAMC1110 at a final concentration of 1 μM. After the completion of the incubation, the cells were washed twice with ice-cold PBS, followed by solubilization with 1 M NaOH. The cell-associated radioactivity was measured using a gamma-counter. Specific binding was plotted against the total molar concentration of the added radiotracer. The Kd values and the concentration of the radioligand required to saturate the receptors (Bmax) were determined by nonlinear regression using GraphPad (Prism 8 Graph Pad Software, San Diego, CA). For all the cell studies the values are normalized for 1x10^6 cells per well and all data are from two independent experiments with triplicates in each experiment.

For series [1] the following is noted: cited from earlier work.
[2] abbreviates: listed as 177/natLu-DO3A.Glu.(FAPI)2.
Setting [3] is: listed as 177/natLu-DOTAGA.Glu.(FAPI)2.

With `N#C[C@@H]1CC(F)(F)CN1C(=O)CNC(=O)c1ccnc2ccc(OCCCCNC(=O)CC[C@H](NC(=O)CN3CCN(CC(=O)[O-])CCN(CC(=O)[O-])CCN(CC(=O)[O-])CC3)C(=O)NCCCCOc3ccc4nccc(C(=O)NCC(=O)N5CC(F)(F)C[C@H]5C#N)c4c3)cc12.[177Lu+3]` [[^177Lu]Lu-DO3A.Glu.(FAPI)2], on FAP (setting [2]), the Kd is 700 pM and 720 pM; the Bmax is 0.4 ± 0.02 nM and 0.37 ± 0.02 nM.

As for `N#C[C@@H]1CC(F)(F)CN1C(=O)CNC(=O)c1ccnc2ccc(OCCCCNC(=O)CC[C@H](NC(=O)CCC(C(=O)O)N3CCN(CC(=O)[O-])CCN(CC(=O)[O-])CCN(CC(=O)[O-])CC3)C(=O)NCCCCOc3ccc4nccc(C(=O)NCC(=O)N5CC(F)(F)C[C@H]5C#N)c4c3)cc12.[177Lu+3]` (some centres unmarked) [[^177Lu]Lu-DOTAGA.Glu.(FAPI)2], in series [1] (human dosimetry, mean), the “absorbed dose left colon” value is given as 0.31 ± 0.12 Gy/GBq and the “absorbed dose right colon” value is 0.22 ± 0.09 Gy/GBq. For the same compound, in series [1] (human studies), the “biological half-life in bone metastases” value is recorded as 19.5 ± 7.3 h and the “biological half-life in soft tissue metastases” value is recorded as 22.1 ± 6.7 h. At FAP (setting [3]), the Kd was 700 pM and 680 pM; the Bmax was 0.4 ± 0.02 nM and 0.36 ± 0.02 nM.
